Publication PMC5330855 (Biochemistry, 2017)

How the values were obtained:
hhIYD [1] = target: T1, hhIYD (Haliscomenobacter hydrossis, UniProt F4KU78); experiment: Quenching of FMNox fluorescence, ligand binding to hhIYD
T1 sequence (F4KU78 1-222): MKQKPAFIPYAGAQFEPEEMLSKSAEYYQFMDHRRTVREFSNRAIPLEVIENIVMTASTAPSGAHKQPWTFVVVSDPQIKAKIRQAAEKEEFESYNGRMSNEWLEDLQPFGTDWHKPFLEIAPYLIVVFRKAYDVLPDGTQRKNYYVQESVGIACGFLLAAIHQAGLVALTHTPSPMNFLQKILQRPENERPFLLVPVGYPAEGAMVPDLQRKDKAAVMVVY

human IYD = target: T2, human IYD (Homo sapiens, UniProt Q6PHW0); experiment: Catalytic deiodination by human IYD; assay type: biochemical
T2 sequence (Q6PHW0 with tags, fused parts or gaps): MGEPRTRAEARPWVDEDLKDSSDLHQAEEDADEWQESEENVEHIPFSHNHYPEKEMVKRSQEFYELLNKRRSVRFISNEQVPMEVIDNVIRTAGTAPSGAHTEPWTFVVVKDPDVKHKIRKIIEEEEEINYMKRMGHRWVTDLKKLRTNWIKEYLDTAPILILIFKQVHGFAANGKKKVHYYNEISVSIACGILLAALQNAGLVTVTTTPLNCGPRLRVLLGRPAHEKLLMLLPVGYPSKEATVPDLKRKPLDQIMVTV

[2] = Intrinsic reactivity of free cofactor FMNhq with 2IP; assay type: biochemical; settings: FMN 2.5 μM, 2IP 5 mM, dithionite 0.5% w/v, 2 h incubation; threshold ~ 3 nmol
hhIYD [3] = target: T1, hhIYD; experiment: Anaerobic reduction of hhIYD by xanthine and xanthine oxidase; assay type: biochemical; settings: hhIYD 20 μM; F-Tyr 500 μM or 2IP 800 μM
hhIYD [4] = target: T1, hhIYD; assay type: biochemical
IYD = settings: cited from earlier work

## Oc1ccccc1I [2IP, 2-iodophenol]
hhIYD [1]; hhIYD relative to human IYD
  increase in affinity for hhIYD relative to human IYD: ~ 20 fold
Human IYD
  Km greater than that for I-Tyr: 560 fold
  kcat less than that for I-Tyr: 26 fold
[2]
  phenol formed with free FMN: no phenol was detected
hhIYD [3]
  accumulation of the FMNsq intermediate during reduction: did not detectably promote an accumulation of the FMNsq intermediate

## N#Cc1ccc(O)c(I)c1 [2IPCN, 4-cyano-2-iodophenol]
hhIYD [1]; hhIYD
  Kd lower than that of 2IP: ~50 fold
hhIYD [4]; hhIYD
  deiodination by the bacterial deiodinase: not detectably deiodinated

## O=C(O)c1ccc(O)c(I)c1 [2IPCOOH, 4-hydroxy-3-iodobenzoic acid]
hhIYD [4]; hhIYD
  Km larger than that for 2IP: 75%

## Nc1ccc(O)c(I)c1 [4A2IP, 4-amino-2-iodophenol]
hhIYD [1]; hhIYD
  Kd larger than that for 2IP: 40%
hhIYD [4]; hhIYD
  kcat/Km greater than the parent 2IP: ~6 fold

## N[C@@H](Cc1ccc(O)c(F)c1)C(=O)O [F-Tyr, 3-fluoro-L-tyrosine, reference compound]
hhIYD [1]
  Kd: 46 ± 2 µM

## N[C@@H](Cc1ccc(O)c(I)c1)C(=O)O [I-Tyr, 3-iodo-L-tyrosine, reference compound]
hhIYD [1]; hhIYD relative to human IYD
  weaker affinity for hhIYD than human IYD: ~ 90 fold
Human IYD
  Km greater than Kd: > 80 fold
Human IYD; I2-Tyr by 125I-iodide release assay
  kcat/Km larger than that measured for I2-Tyr: 50%
hhIYD [4]; hhIYD versus human IYD
  increase in kcat/Km, hhIYD relative to human IYD: 16 fold

## O-(4-hydroxy-3,5-diiodophenoxy)-3,5-diiodo-L-tyrosine [Thyroxine]
IYD
  dehalogenation by IYD: not dehalogenated by IYD
